Assay results from PMC9896555, “Cyclic Acetals as Novel Long-Lasting Mosquito Repellents” (Journal of Agricultural and Food Chemistry, 2023).
Like-named read-outs stand apart in the source and are kept apart here.

How the values were obtained:
[1] = tested on: Aedes albopictus; experiment: Effective dose / protection efficacy, human-bait technique; assay type: in vivo; conditions: for 100% PE: Table S1; for pest or weed control at 0.081 µg/cm2, 0.081 µg/cm2 / pest or weed control at 0.17 µg/cm2, 0.17 µg/cm2 / pest or weed control at 0.33 µg/cm2, 0.33 µg/cm2 / pest or weed control at 0.5 µg/cm2, 0.5 µg/cm2 / pest or weed control at 0.83 µg/cm2, 0.83 µg/cm2 / pest or weed control at 1.7 µg/cm2, 1.7 µg/cm2 / pest or weed control at 8.3 µg/cm2, 8.3 µg/cm2 / pest or weed control at 16.7 µg/cm2, 16.7 µg/cm2 / pest or weed control at 83.3 µg/cm2, 83.3 µg/cm2: Aedes albopictus, topical, read-out: Protection efficacy PE%; for Protection efficacy (dose to obtain complete protection (100%) from bite attempts): applied on skin of volunteers, 3 min exposure
Experimental: The repellence of DEET, Icaridin (both supplied by Istituto Biochimico VEBI s.r.l.), acetals, and the synthesized hydroxyacetals was evaluated againstAedes albopictususing the human-bait technique (to simulate the condition of human skin on which repellents will be applied).[22]A. albopictuswas reared and tested at 26 ± 2 °C, ≥60 ± 10% relative humidity (RH), and at 14:10 h light/dark photoperiod, within Plexiglas cylindrical laboratory cages (35 cm diameter, 60 cm length) with one end closed by a net. During the tests, cages contained ≈150 nulliparous, 4–7 day-old, nonblood-fed females. For each compound to be tested, up to six volunteers participated in the trial.
The study was approved by the Regional Ethics Committee for Clinical Trials of Tuscany Region with the registered number 20383. Volunteers agreed to take part in the experiments following informed consent; only volunteers non-allergic to mosquito bites participated in the trials. On the day of the bioassay, they had no contact with lotions, perfumes, oils, or perfumed soaps. They wore latex surgical gloves, in which a dorsal square area of 30 cm^2 was cut open. Mosquito-exposed skin was treated with 50 μL of ethanol, as the negative hand control. The other hand was treated with 50 μL of the tested compounds in ethanol solution (dosages corresponding to 0.081, 0.17, 0.33, 0.5, 0.83, 1.7, 8.3, 16.7, and 83.3 μg/cm^2). Both hands were presented in the same test cage. The number of probing mosquitoes in a 3 min exposure period was recorded. During each test, the control and the treated hand were presented interchanged to verify the mosquitoes’ readiness to bite. Trials were considered valid only if at least 30 mosquitoes performed probing behavior on the control hand before each repellent dosage was tested. The protection efficacy (PE %) obtained from all replicates was calculated, according to the WHO guidelines[31] using this formula [drawing 1]
To evaluate the protection efficacy, volunteers applied increasing doses of the compounds to the skin on the back of their hands (30 cm^2, while the rest was covered with a rubber glove) and counted the number of mosquitoes attempting to bite; the solvent only was used on the control hand. The protection (percentage of repelled mosquitoes) was calculated as reported in the Material and Methods section.

[2] = tested on: Aedes albopictus; experiment: Protection time at 0.17 mg/cm2, human-bait technique; assay type: in vivo; conditions: for Average PT >95% (% coefficient of variation) / Estimated 100% PT (complete protection time, mean±SE): at the dose of 0.17mg/cm2; for Estimated 100% PT (complete protection time, mean±SE): Kaplan–Meier estimate; for pest or weed control at 0.17 mg/cm2, 0.17 mg/cm2: Aedes albopictus, topical, read-out: Protection time PE%; for Protection time (95% protection): dose of 0.17 mg/cm^2, tests ended after 8 h
Experimental: To evaluate the protection time of derivatives, the PE % was measured with 100 μL of a 5% ethanol solution, corresponding to 0.17 mg/cm^2 of exposed skin, under the same laboratory conditions. Mosquito-exposed skin was treated with 100 μL of ethanol, as the negative hand control. For each volunteer (up to 8), the test was performed every hour, up to 8 h from the application. The protection time of DEET and Icaridin was measured under the same conditions. Since these trials were run in parallel with those aimed to profile the cytotoxicity of the compounds (paragraph 2.6), we interrupted the experiments for those compounds showing to have higher cytotoxicity than Icaridin and DEET as soon as the results were available. For this reason, the number of volunteers differs among the compounds.
The average time until protection which was higher than 95% protection time was considered for each compound. Moreover, for the compounds tested on at least three volunteers, the complete (100%) protection time was also estimated (SPSS 28.01.0) using the Kaplan–Meier survivor function procedure.[22]

[3] = tested on: HaCaT cells; experiment: Cytotoxicity on human keratinocytes (MTS); assay type: cell-based; conditions: 82 μg/mL, 24 h
Experimental: HaCaT cells were cultured in 5% CO2 at 37 °C in Dulbecco’s modified Eagle’s medium (DMEM), supplemented with 10% fetal bovine serum (FBS), 1% L-glutamine ([…]), and 1% penicillin–streptomycin (Thermo Fisher Scientific, Rodano, Milan, Italy). […] Experiments were performed in triplicate.

SMILES	100% PE [1] [µg/cm2]	Average PT >95% (% coefficient of variation) [2]	Estimated 100% PT (complete protection time, mean±SE) [2] [min]	pest or weed control at 0.081 µg/cm2, 0.081 µg/cm2 ([1]; 0.081 µg/cm2) [%]	pest or weed control at 0.17 µg/cm2, 0.17 µg/cm2 ([1]; 0.17 µg/cm2) [%]	pest or weed control at 0.33 µg/cm2, 0.33 µg/cm2 ([1]; 0.33 µg/cm2) [%]	pest or weed control at 0.5 µg/cm2, 0.5 µg/cm2 ([1]; 0.5 µg/cm2) [%]	pest or weed control at 0.83 µg/cm2, 0.83 µg/cm2 ([1]; 0.83 µg/cm2) [%]	pest or weed control at 1.7 µg/cm2, 1.7 µg/cm2 ([1]; 1.7 µg/cm2) [%]	pest or weed control at 8.3 µg/cm2, 8.3 µg/cm2 ([1]; 8.3 µg/cm2) [%]	pest or weed control at 16.7 µg/cm2, 16.7 µg/cm2 ([1]; 16.7 µg/cm2) [%]	pest or weed control at 83.3 µg/cm2, 83.3 µg/cm2 ([1]; 83.3 µg/cm2) [%]	Protection efficacy (dose to obtain complete protection (100%) from bite attempts) [1] [μg/cm^2]	pest or weed control at 0.17 mg/cm2, 0.17 mg/cm2 ([2]; 0.17mg/cm2, 1 h) [%]	pest or weed control at 0.17 mg/cm2, 0.17 mg/cm2 ([2]; 0.17mg/cm2, 2 h) [%]	pest or weed control at 0.17 mg/cm2, 0.17 mg/cm2 ([2]; 0.17mg/cm2, 3 h) [%]	pest or weed control at 0.17 mg/cm2, 0.17 mg/cm2 ([2]; 0.17mg/cm2, 4 h) [%]	pest or weed control at 0.17 mg/cm2, 0.17 mg/cm2 ([2]; 0.17mg/cm2, 5 h) [%]	pest or weed control at 0.17 mg/cm2, 0.17 mg/cm2 ([2]; 0.17mg/cm2, 6 h) [%]	pest or weed control at 0.17 mg/cm2, 0.17 mg/cm2 ([2]; 0.17mg/cm2, 7 h) [%]	also measured
CCCCCC1(CCCCC)OCC(CO)O1 (racemic) [23a]	83.3	360 (4.8) min	240 ± 65	–	–	–	–	–	–	–	–	–	–	–	–	–	–	–	–	–	Protection efficacy PE% ([1]; 0.081 µg/cm2): 33.33%; Protection efficacy PE% ([1]; 0.17 µg/cm2): 54.16%; Protection efficacy PE% ([1]; 0.33 µg/cm2): 97.01%; Protection efficacy PE% ([1]; 0.5 µg/cm2): 76.81%; Protection efficacy PE% ([1]; 0.83 µg/cm2): 76.67%; Protection efficacy PE% ([1]; 1.7 µg/cm2): 93.75%; Protection efficacy PE% ([1]; 8.3 µg/cm2): 88.23%; Protection efficacy PE% ([1]; 16.7 µg/cm2): 98.04%; Protection efficacy PE% ([1]; 83.3 µg/cm2): 100%; Protection time PE% ([2]; 0.17mg/cm2, 0 min): 100%; Protection time PE% ([2]; 0.17mg/cm2, 1 h): 99.62%; Protection time PE% ([2]; 0.17mg/cm2, 2 h): 98.79%; Protection time PE% ([2]; 0.17mg/cm2, 3 h): 97.92%; Protection time PE% ([2]; 0.17mg/cm2, 4 h): 98.99%; Protection time PE% ([2]; 0.17mg/cm2, 5 h): 88.68%; Protection time PE% ([2]; 0.17mg/cm2, 6 h): 97.92%; Protection time PE% ([2]; 0.17mg/cm2, 7 h): 92.53%; Protection time PE% ([2]; 0.17mg/cm2, 8 h): 92.80%
CC1(CO)COC2(CCCCC2)OC1 [6b]	0.83	480 (3.3) min	375 ± 89	48.4	62.7	77	64.9	100	100	100	100	100	0.83	100	99.1	100	100	99.4	90.8	97.3	pest or weed control at 0.17 mg/cm2, 0.17 mg/cm2 ([2]; 0.17mg/cm2, 8 h): 95.1%; Protection time (95% protection) [2]: 8 h; survival of keratocytes [3]: > 88%
CCCCCCCC1(C)OCC(CO)O1 (stereo not drawn) [15a]	16.7	480 (6.0) min	380 ± 61	7.74	35.8	45.9	54.7	62.2	89.4	98.8	100	100	16.7	100	99.6	100	100	97.7	98.5	97.5	pest or weed control at 0.17 mg/cm2, 0.17 mg/cm2 ([2]; 0.17mg/cm2, 8 h): 96.7%; Protection time (95% protection) [2]: 8 h
